The source of these data is article PMC3165067 (Journal of medicinal chemistry, 2011).

For assay [1], the target named is T1, Antithrombin inhibition of factor Xa (Homo sapiens, UniProt P01008). Nature of the assay: Kinetics of antithrombin inhibition of factor Xa in presence of activators. Format: biochemical. The settings on record: for kACT (second-order rate constant of fXa inhibition by AT–activator complex): pH 6.0, 25 mM NaCl, 25 °C, error ±1 S.E.
The target of assay [2] is T1, Antithrombin inhibition of factor Xa. The settings on record: ref [32], cited from earlier work.

T1 sequence (P01008 33-464): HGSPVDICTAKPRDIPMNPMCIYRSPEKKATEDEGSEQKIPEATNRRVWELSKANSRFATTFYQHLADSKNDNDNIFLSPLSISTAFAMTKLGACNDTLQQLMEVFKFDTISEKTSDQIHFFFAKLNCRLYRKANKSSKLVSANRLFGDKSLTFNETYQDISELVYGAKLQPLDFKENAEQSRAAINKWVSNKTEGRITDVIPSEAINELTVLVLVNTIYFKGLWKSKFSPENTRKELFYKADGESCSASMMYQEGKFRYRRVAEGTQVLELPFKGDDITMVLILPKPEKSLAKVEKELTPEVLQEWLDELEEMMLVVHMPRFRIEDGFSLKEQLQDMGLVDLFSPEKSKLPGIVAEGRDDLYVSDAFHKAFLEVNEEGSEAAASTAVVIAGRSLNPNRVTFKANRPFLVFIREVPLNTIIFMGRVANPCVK

For the compound `O=C([O-])C1Cc2cc(OS(=O)(=O)[O-])c(OS(=O)(=O)[O-])cc2CN1C(=O)Cc1cc(OS(=O)(=O)[O-])ccc1OS(=O)(=O)[O-].[Na+].[Na+].[Na+].[Na+].[Na+]` (centres unmarked) [19a, Sodium 2-(2-(2,5-di-O-sulfonato-phenyl)acetyl)-6,7-di-O-sulfonato-1,2,3,4-tetrahydroisoquinoline-3-carboxylate tetrasodium], the “kACT (second-order rate constant of fXa inhibition by AT–activator complex)” value in assay [1] came to 19740 ± 1290 M⁻¹ s⁻¹.

Take `O=C([O-])C1Cc2cc(OS(=O)(=O)[O-])c(OS(=O)(=O)[O-])cc2CN1C(=O)CCc1cc(OS(=O)(=O)[O-])ccc1OS(=O)(=O)[O-].[Na+].[Na+].[Na+].[Na+].[Na+]` (centres unmarked) [19b, Sodium 2-(3-(2,5-di-O-sulfonato-phenyl)propanoyl)-6,7-di-O-sulfonato-1,2,3,4-tetrahydroisoquinoline-3-carboxylate tetrasodium]: the “kACT (second-order rate constant of fXa inhibition by AT–activator complex)” value in assay [1] is 8051 ± 751 M⁻¹ s⁻¹.

As to `O=C([O-])C1Cc2c(OS(=O)(=O)[O-])ccc(OS(=O)(=O)[O-])c2CN1C(=O)CCCc1cc(OS(=O)(=O)[O-])ccc1OS(=O)(=O)[O-].[Na+].[Na+].[Na+].[Na+].[Na+]` (centres unmarked) [20c, Sodium 2-(4-(2,5-di-O-sulfonato-phenyl)butanoyl)-5,8-di-O-sulfonato-1,2,3,4-tetrahydro isoquinoline-3-carboxylate tetrasodium], the “AT activation, fold less than that achieved with DEFGH” value in assay [1] (79-fold versus 300-fold for DEFGH) stood at 3.8 fold. The “kACT (second-order rate constant of fXa inhibition by AT–activator complex)” value in assay [1] was 46330 ± 2830 M⁻¹ s⁻¹.

As for `O=S(=O)([O-])Oc1cc2c(c(OS(=O)(=O)[O-])c1)C[C@@H](OS(=O)(=O)[O-])[C@@H](c1ccc(OS(=O)(=O)[O-])c(OS(=O)(=O)[O-])c1)O2.[Na+].[Na+].[Na+].[Na+].[Na+]` [ECS], in assay [2] (20 mM sodium phosphate buffer, pH 6.0, 0.1 mM EDTA, 0.1% PEG8000), the kUNCAT was ~120 M⁻¹ s⁻¹. Also, the kACT in assay [2] (pH 6.0, no added NaCl) is 909 ± 40 M⁻¹ s⁻¹.

For `O=C(Cc1cc(OS(=O)(=O)[O-])ccc1OS(=O)(=O)[O-])N1CCc2cc(OS(=O)(=O)[O-])c(OS(=O)(=O)[O-])cc2C1.[Na+].[Na+].[Na+].[Na+]` [compound 7, 1-(6,7-di-O-sulfonato-3,4-dihydroisoquinolin-2(1H)-yl)-2-(2,5-di-O-sulfonato-phenyl) ethanone tetrasodium], the “kACT (second-order rate constant of fXa inhibition by AT–activator complex)” value in assay [1] came out at 4582 ± 597 M⁻¹ s⁻¹.

With `O=C(CCCc1cc(OS(=O)(=O)[O-])ccc1OS(=O)(=O)[O-])N1CCc2c(ccc(OS(=O)(=O)[O-])c2OS(=O)(=O)[O-])C1.[Na+].[Na+].[Na+].[Na+]` [compound 8, 1-(5,6-di-O-sulfonato-3,4-dihydroisoquinolin-2(1H)-yl)-4-(2,5-di-O-sulfonato-phenyl)butan-1-one tetrasodium], the “kACT (second-order rate constant of fXa inhibition by AT–activator complex)” value in assay [1] was 3337 ± 265 M⁻¹ s⁻¹.

Take `O=C([O-])C1Cc2cc(OS(=O)(=O)[O-])c(OS(=O)(=O)[O-])cc2CN1C(=O)CCCc1cc(OS(=O)(=O)[O-])ccc1OS(=O)(=O)[O-].[Na+].[Na+].[Na+].[Na+].[Na+]` (centres unmarked) [19c, Sodium 2-(4-(2,5-di-O-sulfonato-phenyl)butanoyl)-6,7-di-O-sulfonato-1,2,3,4-tetrahydroisoquinoline-3-carboxylate tetrasodium]: in assay [1], the “kACT (second-order rate constant of fXa inhibition by AT–activator complex)” value is 9640 ± 748 M⁻¹ s⁻¹.

Consider `O=C([O-])C1Cc2c(OS(=O)(=O)[O-])ccc(OS(=O)(=O)[O-])c2CN1C(=O)CCc1cc(OS(=O)(=O)[O-])ccc1OS(=O)(=O)[O-].[Na+].[Na+].[Na+].[Na+].[Na+]` (centres unmarked) [20b, Sodium 2-(3-(2,5-di-O-sulfonato-phenyl)propanoyl)-5,8-di-O-sulfonato-1,2,3,4-tetrahydroisoquinoline-3-carboxylate tetrasodium], for which the “kACT (second-order rate constant of fXa inhibition by AT–activator complex)” value in assay [1] was 11800 ± 789 M⁻¹ s⁻¹.

On to `O=C([O-])C1Cc2c(OS(=O)(=O)[O-])ccc(OS(=O)(=O)[O-])c2CN1C(=O)Cc1cc(OS(=O)(=O)[O-])ccc1OS(=O)(=O)[O-].[Na+].[Na+].[Na+].[Na+].[Na+]` (centres unmarked) [20a, Sodium 2-(2-(2,5-di-O-sulfonato-phenyl)acetyl)-5,8-di-O-sulfonato-1,2,3,4-tetrahydroisoquinoline-3-carboxylate tetrasodium], for which the “kACT (second-order rate constant of fXa inhibition by AT–activator complex)” value in assay [1] came out at 32630 ± 1644 M⁻¹ s⁻¹.
